From patent US12319676B2, “Substituted amide compounds useful as farnesoid X receptor modulators” (BRISTOL-MYERS SQUIBB COMPANY, priority 2019, dated 2025)

Target: T1, human FXR (Homo sapiens, UniProt Q96RI1)
T1 construct: expressed in transfected cells; host or cells: HEK293 cells stably carrying a 5xGal4 response element-luciferase reporter, transiently transfected with pcDNA3.1-Gal4-FXR
T1 sequence (Q96RI1 262-486 limits assumed): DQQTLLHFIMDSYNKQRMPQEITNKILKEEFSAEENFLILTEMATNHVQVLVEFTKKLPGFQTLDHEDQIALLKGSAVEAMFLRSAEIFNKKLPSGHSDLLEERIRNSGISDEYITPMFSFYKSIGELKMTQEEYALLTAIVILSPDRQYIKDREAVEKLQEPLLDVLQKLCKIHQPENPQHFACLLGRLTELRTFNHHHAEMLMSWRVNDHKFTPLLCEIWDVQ
Assay: transient human FXR/Gal4-luciferase reporter assay
Format: cell-based
Details: Gal4-hFXR fusion construct, luciferase reporter in HEK293 cells; overnight incubation; response as percentage of 8 μM GW-4064 control
Description: The exemplified compounds of the present invention were tested in the transient human FXR/Gal4-luciferase reporter assay, and assay results were reported in Table 1 and Examples 1 to 3 together with other analytical data. A Gal4-hFXR fusion construct reporter system was used as the primary assay to characterize compound activity. A construct including 5 copies of the Gal4 promoter response element upstream of a firefly luciferase reporter cDNA was stably expressed in HEK293 cells. This reporter cell line was maintained in Dulbecco's Modified Eagle's medium (DMEM; Gibco) supplemented with 1% penicillin-streptomycin (P/S) solution, 500 μg/mL Zeocin and 10% charcoal/dextran-treated fetal bovine serum (cs-FBS) at 37° C. in a humidified 5% CO2 atmosphere. Another plasmid was constructed in which the human cytomegalovirus promoter in the pcDNA3.1 vector directs the expression of the cDNA encoding a fusion protein comprised of the DNA binding domain from the Gal4 transcription factor fused to the ligand binding domain from human FXR. The day prior to transfection, the reporter cells in culture are detached from the plate with trypsin and plated into a T75 flask at a sufficient density to achieve approximately 90% confluence the next morning. The transfection reagents are prepared by separately diluting 25 μg of the pcDNA3.1-Gal4-FXR plasmid into 1.87 mL of Opti-MEM (Thermo-Fisher), and 40 μL of Lipofectamine 2000 (Thermo-Fisher) into 1.87 mL of Opti-MEM, and then adding the diluted DNA solution into the diluted Lipofectamine 2000 solution and incubating at room temperature for 15-20 minutes. The mixture is further diluted with 10 mL of a solution comprised of DMEM, 10% cs-FBS, and 1% P/S immediately prior to transferring to the cells. The maintenance culture media is aspirated from the cells and the final transfection mixture is added before the cells are incubated overnight at 37° C. in a humidified 5% CO2 atmosphere. This protocol can be scaled up, and the transiently transfected cells can be cryopreserved in an assay-ready format. For compound testing, 100 nL of the compounds (serial dilutions in DMSO) are dispensed with an Echo acoustic dispenser (Labcyte) into the wells of a Corning/Costar clear bottom 384-well white plate. The transfected cells are harvested, counted, and diluted such that 10-25,000 cells in 25 μL are plated into each well of the 384-well compound assay plate. The compound-treated cells are incubated overnight at 37° C. in a humidified 5% CO2 atmosphere. The next morning 25 μL of Steady-Glo (Promega) are added to each well of the plate, the mixture is incubated for 15 min. with shaking, and luminescence is measured on an Envision (Perkin Elmer) plate reader. Background counts from cells treated with DMSO alone are subtracted from all raw counts, and the corrected values are converted to a percentage of the control response attained with 8 μM GW-4064.

SMILES | EC50
CC(C)(C)c1noc(C23CCC(CN(C(=O)C4CC(F)(F)C4)c4cccc(C#N)c4)(CC2)CC3)n1 [Example 41, N-((4-(3-(tert-butyl)-1,2,4-oxadiazol-5-yl)bicyclo[2.2.2]octan-1-yl)methyl)-N-(3-cyanophenyl)-3,3-difluorocyclobutane-1-carboxamide] | 171 nM
CC(C)(C)c1noc(C23CCC(CN(C(=O)C4CCC(F)(F)CC4)c4cccc(C#N)c4)(CC2)CC3)n1 [Example 42, N-((4-(3-(tert-butyl)-1,2,4-oxadiazol-5-yl)bicyclo[2.2.2]octan-1-yl)methyl)-N-(3-cyanophenyl)-4,4-difluorocyclohexane-1-carboxamide] | 1250 nM
CC(C)(C)c1noc(C23CCC(CN(C(=O)C45CC(F)(C4)C5)c4cccc(P(C)(C)=O)c4)(CC2)CC3)n1 [Example 43, N-((4-(3-(tert-butyl)-1,2,4-oxadiazol-5-yl)bicyclo[2.2.2]octan-1-yl)methyl)-N-(3-(dimethylphosphoryl)phenyl)-3-fluorobicyclo[1.1.1]pentane-1-carboxamide] | 4000 nM
CC(C)(C)c1noc(C23CCC(CN(C(=O)C4CC(F)(F)C4)c4cccc(P(C)(C)=O)c4)(CC2)CC3)n1 [Example 44, N-((4-(3-(tert-butyl)-1,2,4-oxadiazol-5-yl)bicyclo[2.2.2]octan-1-yl)methyl)-N-(3-(dimethylphosphoryl)phenyl)-3,3-difluorocyclobutane-1-carboxamide] | 4000 nM
CC(C)(C)c1noc(C23CCC(CN(c4cccc(P(C)(C)=O)c4)C(=O)[C@H]4C[C@](O)(C(F)(F)F)C4)(CC2)CC3)n1 [Example 45, (1S,3S)-N-((4-(3-(tert-butyl)-1,2,4-oxadiazol-5-yl)bicyclo[2.2.2]octan-1-yl)methyl)-N-(3-(dimethylphosphoryl)phenyl)-3-hydroxy-3-(trifluoromethyl)cyclobutane-1-carboxamide] | 4000 nM
CC(C)(C)c1noc(C23CCC(CN(C(=O)C4CCOCC4)c4cccc(P(C)(C)=O)c4)(CC2)CC3)n1 [Example 46, N-((4-(3-(tert-butyl)-1,2,4-oxadiazol-5-yl)bicyclo[2.2.2]octan-1-yl)methyl)-N-(3-(dimethylphosphoryl)phenyl)tetrahydro-2H-pyran-4-carboxamide] | 4000 nM
CC(C)(C)c1noc(C23CCC(CN(C(=O)C4CCS(=O)(=O)CC4)c4cccc(P(C)(C)=O)c4)(CC2)CC3)n1 [Example 47, N-((4-(3-(tert-butyl)-1,2,4-oxadiazol-5-yl)bicyclo[2.2.2]octan-1-yl)methyl)-N-(3-(dimethylphosphoryl)phenyl)tetrahydro-2H-thiopyran-4-carboxamide 1,1-dioxide] | 4000 nM
CC(F)(F)c1ccc(C23CCC(CN(C(=O)C45CC(F)(C4)C5)c4cccc(Br)c4)(CC2)CC3)nc1 [Example 48, N-(3-bromophenyl)-N-((4-(5-(1,1-difluoroethyl)pyridin-2-yl)bicyclo[2.2.2]octan-1-yl)methyl)-3-fluorobicyclo[1.1.1]pentane-1-carboxamide] | 288 nM
CC(F)(F)c1ccc(C23CCC(CN(C(=O)C45CC(F)(C4)C5)c4cccc(C#N)c4)(CC2)CC3)nc1 [Example 49, N-(3-cyanophenyl)-N-((4-(5-(1,1-difluoroethyl)pyridin-2-yl)bicyclo[2.2.2]octan-1-yl)methyl)-3-fluorobicyclo[1.1.1]pentane-1-carboxamide] | 327 nM
CC(F)(F)c1ccc(C23CCC(CN(c4cccc(C#N)c4)C(=O)[C@H]4C[C@@](C)(O)C4)(CC2)CC3)nc1 [Example 50, (1S,3S)-N-(3-cyanophenyl)-N-((4-(5-(1,1-difluoroethyl)pyridin-2-yl)bicyclo[2.2.2]octan-1-yl)methyl)-3-hydroxy-3-methylcyclobutane-1-carboxamide] | 1190 nM
CC(F)(F)c1ccc(C23CCC(CN(c4cccc(C#N)c4)C(=O)[C@H]4C[C@](O)(C(F)(F)F)C4)(CC2)CC3)nc1 [Example 51, (1S,3S)-N-(3-cyanophenyl)-N-((4-(5-(1,1-difluoroethyl)pyridin-2-yl)bicyclo[2.2.2]octan-1-yl)methyl)-3-hydroxy-3-(trifluoromethyl)cyclobutane-1-carboxamide] | 1330 nM
CCOc1cccc(N(CC23CCC(c4nc(C5CC5)no4)(CC2)CC3)C(=O)C23CC(F)(C2)C3)c1 [Example 52, N-((4-(3-cyclopropyl-1,2,4-oxadiazol-5-yl)bicyclo[2.2.2]octan-1-yl)methyl)-N-(3-ethoxyphenyl)-3-fluorobicyclo[1.1.1]pentane-1-carboxamide] | 102 nM
CCOc1cccc(N(CC23CCC(c4nc(C5CC5)no4)(CC2)CC3)C(=O)C2CC(F)(F)C2)c1 [Example 53, N-((4-(3-cyclopropyl-1,2,4-oxadiazol-5-yl)bicyclo[2.2.2]octan-1-yl)methyl)-N-(3-ethoxyphenyl)-3,3-difluorocyclobutane-1-carboxamide] | 441 nM
CCOc1cccc(N(CC23CCC(c4nc(C5CC5)no4)(CC2)CC3)C(=O)[C@H]2C[C@](O)(C(F)(F)F)C2)c1 [Example 54, N-((4-(3-cyclopropyl-1,2,4-oxadiazol-5-yl)bicyclo[2.2.2]octan-1-yl)methyl)-N-(3-ethoxyphenyl)-3-hydroxy-3-(trifluoromethyl)cyclobutane-1-carboxamide] | 938 nM
CCOc1cccc(N(CC23CCC(c4nc(C5CC5)no4)(CC2)CC3)C(=O)C2CCOCC2)c1 [Example 55, N-((4-(3-cyclopropyl-1,2,4-oxadiazol-5-yl)bicyclo[2.2.2]octan-1-yl)methyl)-N-(3-ethoxyphenyl)tetrahydro-2H-pyran-4-carboxamide] | 320 nM
CCOc1cccc(N(CC23CCC(c4nc(C5CC5)no4)(CC2)CC3)C(=O)C2CCS(=O)(=O)CC2)c1 [Example 56, N-((4-(3-cyclopropyl-1,2,4-oxadiazol-5-yl)bicyclo[2.2.2]octan-1-yl)methyl)-N-(3-ethoxyphenyl)tetrahydro-2H-thiopyran-4-carboxamide 1,1-dioxide] | 4000 nM
COc1cccc(N(CC23CCC(c4nc(C5CC5)no4)(CC2)CC3)C(=O)[C@H]2C[C@](O)(C(F)(F)F)C2)c1 [Example 57, (1S,3S)—N-((4-(3-cyclopropyl-1,2,4-oxadiazol-5-yl)bicyclo[2.2.2]octan-1-yl)methyl)-3-hydroxy-N-(3-methoxyphenyl)-3-(trifluoromethyl)cyclobutane-1-carboxamide] | 304 nM
COc1cccc(N(CC23CCC(c4nc(C5CC5)no4)(CC2)CC3)C(=O)C23CC(F)(C2)C3)c1 [Example 58, N-((4-(3-cyclopropyl-1,2,4-oxadiazol-5-yl)bicyclo[2.2.2]octan-1-yl)methyl)-3-fluoro-N-(3-methoxyphenyl)bicyclo[1.1.1]pentane-1-carboxamide] | 345 nM
COc1cccc(N(CC23CCC(c4nc(C5CC5)no4)(CC2)CC3)C(=O)C2CC(F)(F)C2)c1 [Example 59, N-((4-(3-cyclopropyl-1,2,4-oxadiazol-5-yl)bicyclo[2.2.2]octan-1-yl)methyl)-3,3-difluoro-N-(3-methoxyphenyl)cyclobutane-1-carboxamide] | 673 nM
COc1cccc(N(CC23CCC(c4nc(C5CC5)no4)(CC2)CC3)C(=O)C2CCOCC2)c1 [Example 60, N-((4-(3-cyclopropyl-1,2,4-oxadiazol-5-yl)bicyclo[2.2.2]octan-1-yl)methyl)-N-(3-methoxyphenyl)tetrahydro-2H-pyran-4-carboxamide] | 902 nM
COc1cccc(N(CC23CCC(c4nc(C5CC5)no4)(CC2)CC3)C(=O)C2CCS(=O)(=O)CC2)c1 [Example 61, N-((4-(3-cyclopropyl-1,2,4-oxadiazol-5-yl)bicyclo[2.2.2]octan-1-yl)methyl)-N-(3-methoxyphenyl)tetrahydro-2H-thiopyran-4-carboxamide 1,1-dioxide] | 4000 nM
